The conditions of test [1]: healthy male volunteers, iv TCI; for subjects who lost consciousness at 75% of LOC: target 75% of individually determined LOC concentration; for subjects who lost consciousness at 100% of LOC: target 100% of individually determined LOC concentration; for subjects who lost consciousness at 125% of LOC: target 125% of individually determined LOC concentration. The protocol:
Twenty volunteers (healthy, right-handed, 19 to 28 years old males) participated in this open, non-randomized study approved by the local ethics committee and the National Agency for Medicines. All subjects gave written informed consent. […] Subjects refrained from using alcohol or any medication for 48 hours before the study and they fasted overnight. No pre-medication was administered prior to study drug administration.
Subjects participated in two separate anesthesia sessions approximately one month apart. The first session was used to establish each subject's individual dose-response characteristics. The second session was used for neuroimaging. Subjects were anesthetized in a similar fashion on the two separate occasions. For each session, the subjects were prepared for the administration of a general anesthetic. In the first session, the individual concentrations for LOC were determined. Subjects were divided into two groups to receive either dexmedetomidine (n=10) or propofol (n=10) intravenous anesthesia via computer-controlled infusion. Once assigned to a particular anesthetic agent, that subject then again received that anesthetic during the neuroimaging session. Each infusion was started at a low rate and was then increased in a step-wise manner at 10 min intervals until LOC was detected. Consciousness was tested at 5 min intervals by asking the subjects to open their eyes. LOC was defined as being unresponsive to this request.
Dexmedetomidine (Precedex 100 μg/ml, Orion, 02200 Espoo, Finland) was administered intravenously using a target controlled infusion (TCI) scheme aiming at escalating pseudo steady-state plasma concentrations every 10 min. A Harvard 22 syringe pump (Harvard Apparatus, South Natick, Mass.) connected to a portable computer running […] software (Steven L. Schafer, M.D., Columbia University Medical Center, 622 W 168th St, PH 5-505 New York, N.Y. 10032-3725, USA) and the pharmacokinetic parameters of Talke were used (P. Talke et al., Anesthesiology 99, 65 (2003)). In the first session, the infusion was started at a target (plasma) concentration of 1.0 ng/ml, followed first by a 0.5 ng/ml target concentration increase and then by subsequent 0.25 ng/ml increases thereafter (i.e. 1.0-1.5-1.75-2.0-2.25-etc. ng/ml) until LOC was achieved.
Propofol (Propofol Lipuro 10 mg/ml, B. Braun Melsungen AG, Pfieffewiesen, D-34212 Melsungen, Germany) was administrated with the same infusion system and scheme as dexmedetomidine, using the Marsh pharmacokinetic model (B. Marsh et al., Br J Anaesth 67, 412 (1991)). In the first session, the infusion was started at a target (plasma) concentration of 1.0 μg/ml, followed first by a 0.5 μg/ml target concentration increase and then subsequent 0.25 μg/ml increases thereafter (i.e. 1.0-1.5-1.75-2.0-2.25-etc. μg/ml) until LOC was achieved.
In the second (neuroimaging) session of the study, the computer controlled drug infusion was repeated for each subject by aiming at their individually determined drug concentrations 50, 75 and 100% of the LOC concentration. Consciousness was tested similarly to the first session. If the LOC concentration defined in the first session of the study was not sufficient to produce LOC in the second session, the drug infusion was continued and an additional 25% target concentration increment was added to the rate. Concentrations were adjusted at 10 min intervals with simultaneous imaging at each level until LOC was detected.

For test [2] the following is noted: after LOC, continuous infusion of the drug.
Protocol: After LOC was reached and neuroimaging completed at that level of anesthesia, those in the propofol infusion group had the infusion terminated and the subjects were allowed to emerge from anesthesia. During the emergence process, consciousness was tested at 1 min intervals until ROC was detected. ROC was defined as eye opening in response to the command to do so. […] PET measurements were thus obtained during the four conditions: baseline, sedation, LOC and ROC for 17 subjects.

On to `Cc1cccc([C@H](C)c2cnc[nH]2)c1C` [dexmedetomidine, Dexmedetomidine], for which the “subjects who lost consciousness at 50% of the previously measured LOC concentration value” in test [1] (target 50% of individually determined LOC concentration) was 1. Also, in test [1], the “subjects who lost consciousness at 75% of LOC” value came to 1, the “subjects who lost consciousness at 100% of LOC” value is given as 3 and the “subjects who lost consciousness at 125% of LOC” value was 5. Moreover, the “restoration of consciousness by stimulation during drug infusion” value in test [2] is on record as “gentle tactile stimulation and/or loud voice was sufficient to restore consciousness”.
Take `CC(C)c1cccc(C(C)C)c1O` [propofol, Propofol]: in test [1], the “subjects who lost consciousness at 75% of LOC” value is listed as 2, the “subjects who lost consciousness at 100% of LOC” value turned out to be 6 and the “subjects who lost consciousness at 125% of LOC” value came to 1.

For the origin of these results see patent US20120083647A1, “METHOD FOR CHANGING AN INDIVIDUAL'S STATE OF CONSCIOUSNESS” (priority 2010, published 2012).
